Results as given in patent publication US20040038199A1, “Phenotyping assay and reagents therefor” (priority 2000, published 2004).
Read-outs that look alike come from different tables or passages of the source.

How the values were obtained:
Assay type in all cases: cell-based, HIV-1
[1] = test system: Virus 1 (recombinant generated from plasma of Subject 1 by FPH or RVA); assay: MTT-reduction cell viability drug susceptibility assay, recombinant Virus 1 (FPH or RVA); details: for fold resistance: relative to WT (HXB2); for fold higher susceptibility when generated by RVA than when generated by FPH: virus 1
Description: (§1) As previously discussed, recombinant virus produced by the method of the present invention may be used in drug sensitivity assays. A suitable drug sensitivity assay is described in Pauwels et al. (1988) and is an MTT-reduction colorimetric cell viability assay. Cells infected with the virus are plated into the wells of tissue culture plates and incubated with the anti-viral drug to be tested. After incubation, MTT (3-(4,5-dimethylthiazol-2-yl)-2,5diphenyltetrazolium bromide) is added to the cell culture. Only live cells produce the blue formazan product after incubation with MTT. This product is detectable by reading the optical absorbance at 540-590 nm, so the absorbance reading gives a measure of the cells which have been protected from the virus by the anti-viral drug. Viral drug resistance results in a decrease in surviving cells and a decrease in absorbance at 540-590 nm.
(§2) In this experiment, plasma from three HIV-1 infected subjects experiencing virological failure on PI-containing therapy regimens was used as the basis for the FPH to generate recombinant virus. […] Virus from Subject 2 had L10I, M46I, I50V and a Lp1′F mutation at the p1/p6 protease cleavage site, all of which are mutations typical of high level APV resistance.
(§3) The LTR was added to the nested products by PMR prior to transfection. The PMR reactions successfully added the LTR sequences to the nested products (FIG. 9). The first round RT-PCR reactions were also used as templates to generate products for RVA by cotransfection with pHXBΔCSPRTC. Triplicate PCR products were cotransfected into MT4 cells with the linearised plasmid pHXBTOPO1, in the case of the PMR products, and with linearised pHXBΔCSPRTC in for the RVA products. Viral cytopathic effect was observed and titratable virus was harvested in the supernatants. No virus was isolated from virus 2 using FPH and only one of the triplicate cultures from virus 3 yielded infectious virus. All of the RVA cultures produced virus.
(§4) In order to determine whether the extra sequences in the FPH recombinants contain determinants of susceptibility, the recombinant viruses were tested against several drugs. Drug susceptibility was determined by the 3-(4,5dimethylthiazol-2-yl)-2,5-diphenyltetrazolium bromide (MTT)-reduction calorimetric cell viability assay described previously (Pauwels et al. 1988; Robinson et al., 2000). Changes in susceptibility were defined as fold increase in IC50 relative to WT (HXB2). Nucleotide sequences were determined using ABI 3700 capillary sequencers and Big Dye terminators. […] Virus 1 also gave a 2.2-fold (Table 3A) or 4-fold (Table 3B) higher susceptibility to IDV and 2.9-fold (Table 3A) or 3.2-fold higher susceptibility to APV when generated by RVA.

[2] = test system: Virus 5.1 (FPH), 5.2 (RVA); assay: MTT-reduction cell viability drug susceptibility assay, viruses 5.1 and 5.2 (Table 3B); details: for EC50: Human immunodeficiency virus 1, Table 3B; for fold resistance: Table 3B, relative to WT
Description: as §1, §3, §4

[3] = test system: Virus 4.1, 4.2, 4.3 (recombinants by RVA); assay: MTT-reduction cell viability drug susceptibility assay, viruses 4.1-4.3 (Table 3B); details: for EC50: Human immunodeficiency virus 1, Table 3B; for fold resistance: Table 3B, relative to WT
Description: as §1, §3, §4

[4] = test system: WT (HXB2) generated by FPH or RVA; assay: MTT-reduction cell viability drug susceptibility assay, WT (Table 3B); details: for EC50: Human immunodeficiency virus 1, HXB2, Table 3B; for fold resistance: Table 3B
Description: as §1, §4

HXB2 = assay: MTT-reduction cell viability drug susceptibility assay, wild type HXB2 (Table 3A); details: for fold resistance: HXB2 wild type (reference)
Description: as §1, §4

[5] = test system: Virus 3.1, 3.2, 3.3 (recombinants by FPH or RVA); assay: MTT-reduction cell viability drug susceptibility assay, viruses 3.1-3.3 (Table 3B); details: for fold resistance: Table 3B, relative to WT
Description: as §1, §3, §4

[6] = test system: Virus 3 (recombinant generated from plasma of Subject 3 by FPH or RVA); assay: MTT-reduction cell viability drug susceptibility assay, recombinant Virus 3 (FPH or RVA); details: for fold resistance: relative to WT (HXB2); for difference in susceptibility between the two techniques (RVA vs FPH): virus 3
Description: as §1, §2, §3, §4

[7] = test system: Virus 2 (recombinant generated from plasma of Subject 2 by RVA); assay: MTT-reduction cell viability drug susceptibility assay, recombinant Virus 2 (RVA); details: for EC50 / fold resistance: Table 3A, Virus 2, method RVA; for fold resistance: relative to WT (HXB2); for resistance, fold higher than wild-type: Virus 2 obtained via the RVA
Description: as §1, §2, §3, §4

[8] = Human immunodeficiency virus 1, Table 3A, Virus 1, method RVA, read-out: Drug EC50
[9] = Human immunodeficiency virus 1, read-out: Drug EC50, Table 3A, Virus 1, method FPH
[10] = Human immunodeficiency virus 1, HXB2 wild type
[11] = Human immunodeficiency virus 1, Table 3B, Virus 3.1, method FPH, read-out: Drug EC50
[12] = Human immunodeficiency virus 1, Table 3B, Virus 3.2, method FPH, read-out: Drug EC50
[13] = Human immunodeficiency virus 1, Table 3B, Virus 3.2, method RVA, read-out: Drug EC50
[14] = Human immunodeficiency virus 1, Table 3B, Virus 3.3, method FPH, read-out: Drug EC50
[15] = Human immunodeficiency virus 1, read-out: Drug EC50, Table 3B, Virus 3.1, method RVA
[16] = Human immunodeficiency virus 1, Table 3A, Virus 3, method FPH
[17] = Human immunodeficiency virus 1, Table 3A, Virus 3, method RVA

Structure (SMILES): CC(C)CN(C[C@@H](O)[C@H](Cc1ccccc1)NC(=O)O[C@H]1CCOC1)S(=O)(=O)c1ccc(N)cc1 [APV, amprenavir]
- EC50 [1, 8]: 128 nM
- EC50 [1, 9]: 366 nM
- fold resistance ([1]; Table 3A, Virus 1, method FPH): (5.4) fold
- fold resistance ([1]; Table 3A, Virus 1, method RVA): (1.9) fold
- fold higher susceptibility when generated by RVA than when generated by FPH ([1]; Table 3A experiment): 2.9 fold
- fold higher susceptibility when generated by RVA than when generated by FPH ([1]; Table 3B experiment): 3.2 fold
- EC50 ([2]; Virus 5.1, method FPH): 1570 nM
- EC50 ([2]; Virus 5.2, method RVA): 802 nM
- fold resistance ([2]; Virus 5.1, method FPH): (14) fold
- fold resistance ([2]; Virus 5.2, method RVA): (6.6) fold
- EC50 ([3]; Virus 4.1, method RVA): > 2500 nM
- EC50 ([3]; Virus 4.2, method RVA): 2010 nM
- EC50 ([3]; Virus 4.3, method RVA): > 2500 nM
- fold resistance ([3]; Virus 4.1, method RVA): (>21) fold
- fold resistance ([3]; Virus 4.2, method RVA): (17) fold
- fold resistance ([3]; Virus 4.3, method RVA): (>21) fold
- EC50 ([4]; method FPH): 113 nM
- EC50 ([4]; method RVA): 121 nM
- fold resistance ([4]; method FPH (reference)): (1.0) fold
- fold resistance ([4]; method RVA (reference)): (1.0) fold
- fold resistance (HXB2): (1.0) fold
- EC50 (HXB2; [10]): 67.5 nM
- EC50 [5, 11]: 865 nM
- EC50 [5, 12]: 691 nM
- EC50 [5, 13]: 245 nM
- EC50 [5, 14]: 619 nM
- EC50 [5, 15]: 211 nM
- fold resistance ([5]; Virus 3.1, method FPH): (7.7) fold
- fold resistance ([5]; Virus 3.1, method RVA): (1.7) fold
- fold resistance ([5]; Virus 3.2, method FPH): (6.1) fold
- fold resistance ([5]; Virus 3.2, method RVA): (2.0) fold
- fold resistance ([5]; Virus 3.3, method FPH): (5.5) fold
- EC50 [6, 16]: 718 nM
- EC50 [6, 17]: 396 nM
- fold resistance ([6]; Table 3A, Virus 3, method FPH): (11) fold
- fold resistance ([6]; Table 3A, Virus 3, method RVA): (5.9) fold
- difference in susceptibility between the two techniques (RVA vs FPH) ([6]; Table 3B experiment): 2.0 fold
- difference in susceptibility between the two techniques (RVA vs FPH) ([6]; first of the two printed values (Table 3A experiment)): 1.9 fold
- EC50 ([7]; Human immunodeficiency virus 1): 1070 nM
- fold resistance [7]: (16) fold
- resistance, fold higher than wild-type ([7]; Table 3B experiment): > 21 fold
- resistance, fold higher than wild-type ([7]; first printed value (Table 3A experiment)): 16 fold

Structure (SMILES): CC(C)(C)NC(=O)[C@@H]1CN(Cc2cccnc2)CCN1C[C@@H](O)C[C@@H](Cc1ccccc1)C(=O)N[C@H]1c2ccccc2C[C@H]1O [IDV, indinavir]
- EC50 [1, 8]: 14.2 nM
- EC50 [1, 9]: 31.2 nM
- fold resistance ([1]; Table 3A, Virus 1, method FPH): (1.1) fold
- fold resistance ([1]; Table 3A, Virus 1, method RVA): (0.48) fold
- fold higher susceptibility when generated by RVA than when generated by FPH ([1]; Table 3A experiment): 2.2 fold
- fold higher susceptibility when generated by RVA than when generated by FPH ([1]; Table 3B experiment): 4 fold
- EC50 ([2]; Virus 5.1, method FPH): 2230 nM
- EC50 ([2]; Virus 5.2, method RVA): 1520 nM
- fold resistance ([2]; Virus 5.1, method FPH): (72) fold
- fold resistance ([2]; Virus 5.2, method RVA): (49) fold
- EC50 ([3]; Virus 4.1, method RVA): 65 nM
- EC50 ([3]; Virus 4.2, method RVA): 23.8 nM
- EC50 ([3]; Virus 4.3, method RVA): 39.3 nM
- fold resistance ([3]; Virus 4.1, method RVA): (2.1) fold
- fold resistance ([3]; Virus 4.2, method RVA): (−1.3) fold
- fold resistance ([3]; Virus 4.3, method RVA): (1.3) fold
- EC50 ([4]; method FPH): 30.8 nM
- EC50 ([4]; method RVA): 31.2 nM
- fold resistance ([4]; method FPH (reference)): (1.0) fold
- fold resistance ([4]; method RVA (reference)): (1.0) fold
- fold resistance (HXB2): (1.0) fold
- EC50 (HXB2; [10]): 29.7 nM
- EC50 [5, 11]: 60.1 nM
- EC50 [5, 12]: 57.1 nM
- EC50 [5, 13]: 16.5 nM
- EC50 [5, 14]: 53.2 nM
- EC50 [5, 15]: 11.6 nM
- fold resistance ([5]; Virus 3.1, method FPH): (2.0) fold
- fold resistance ([5]; Virus 3.1, method RVA): (−2.7) fold
- fold resistance ([5]; Virus 3.2, method FPH): (1.9) fold
- fold resistance ([5]; Virus 3.2, method RVA): (−1.9) fold
- fold resistance ([5]; Virus 3.3, method FPH): (1.7) fold
- EC50 [6, 16]: 1250 nM
- EC50 [6, 17]: 689 nM
- fold resistance ([6]; Table 3A, Virus 3, method FPH): (42) fold
- fold resistance ([6]; Table 3A, Virus 3, method RVA): (23) fold
- EC50 ([7]; Human immunodeficiency virus 1): 18.7 nM
- fold resistance [7]: (0.63) fold

Structure (SMILES): Cc1c(O)cccc1C(=O)N[C@@H](CSc1ccccc1)[C@H](O)CN1C[C@H]2CCCC[C@H]2C[C@H]1C(=O)NC(C)(C)C [NFV]
- EC50 ([1]; Table 3A, Virus 1, method FPH, read-out: Drug EC50): 70 nM
- fold resistance ([1]; Table 3A, Virus 1, method FPH): (2.3) fold
- EC50 ([1]; Table 3A, Virus 1, method RVA, read-out: Drug EC50): 26.9 nM
- fold resistance ([1]; Table 3A, Virus 1, method RVA): (0.90) fold
- EC50 (HXB2; HXB2 wild type): 29.9 nM
- fold resistance (HXB2): (1.0) fold
- EC50 ([6]; Table 3A, Virus 3, method FPH): 591 nM
- fold resistance ([6]; Table 3A, Virus 3, method FPH): (20) fold
- EC50 ([6]; Table 3A, Virus 3, method RVA): 390 nM
- fold resistance ([6]; Table 3A, Virus 3, method RVA): (13) fold
- EC50 [7]: 70.8 nM
- fold resistance [7]: (2.4) fold
